Source: patent US9284318B2, “Protein kinase inhibitors” (Pharmascience, Inc., priority 2011, dated 2016)

How the values were obtained:
[1] = molecular target: T1, recombinant human colony stimulating factor 1 receptor (FMS) (Homo sapiens, UniProt P07333); assay: Biochemical cFMS (CSF1R) fluorescence polarization kinase assay; conditions: 10 μM ATP, 100 μM substrate, 60 minutes
T1 construct: containing the catalytic domain (amino acids 538-910); His tag; purchased Invitrogen; host or cells: insect cells
T1 sequence (P07333 538-910): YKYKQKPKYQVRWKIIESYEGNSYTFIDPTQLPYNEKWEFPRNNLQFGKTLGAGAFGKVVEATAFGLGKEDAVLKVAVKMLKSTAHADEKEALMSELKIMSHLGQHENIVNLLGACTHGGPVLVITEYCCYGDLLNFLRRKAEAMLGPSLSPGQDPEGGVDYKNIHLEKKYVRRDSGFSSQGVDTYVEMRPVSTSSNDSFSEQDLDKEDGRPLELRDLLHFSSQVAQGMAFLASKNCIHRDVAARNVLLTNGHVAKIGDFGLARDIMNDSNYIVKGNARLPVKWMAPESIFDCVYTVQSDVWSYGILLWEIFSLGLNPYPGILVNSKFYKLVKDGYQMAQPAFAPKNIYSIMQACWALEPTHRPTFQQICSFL
Description: Biochemical cFMS (CSF1R) Assay:
Fluorescence polarization-based kinase biochemical assays were performed in 384 well-plate format using histidine tagged recombinant human colony stimulating factor 1 receptor (FMS) supplied from Invitrogen™ (containing the catalytic domain (amino acids 538-910), expressed in insect cells and activated in vitro via auto phosphorylation) and a modified protocol of the KinEASE™ FP Fluorescein Green Assay supplied from Millipore™.
Kinase reactions were performed in 384 well plate format at room temperature for 60 minutes in presence of 100 μM substrate, 10 μM ATP and variable test article concentrations. The reaction was stopped with EDTA/KinEASE™ detection reagents and the polarization measured on a Tecan 500 instrument. From the dose-response curve obtained, the IC50 was estimated using Graph pad Prisms® using a non linear fit curve.

[2] = test system: M-NFS-60 M-CSF-dependent myeloid leukemia cells; assay: Murine M-CSF-dependent M-NFS-60 cell survival assay; format: cell-based; conditions: Mus musculus; cell survival at 72 hours, 20 ng/ml M-CSF, Cell Titer-Glo
Description: Cellular Assays: Murine M-CSF-Dependent M-NFS-60 Cell Survival Assay
Murine M-NFS-60 M-CSF-dependent myeloid leukemia cells were purchased from ATCC (CRL-1838). Cells were routinely cultured at 37° C., 5% CO2 in complete medium (RPMI supplemented with 10% FBS, 1% penicillin/streptomycin, 50 uM beta mercaptoethanol) containing 30 ng/ml recombinant murine M-CSF (Peprotech 315-02). For survival assays, cells were transferred to depleted medium (complete medium depleted of M-CSF) for 24 hours prior to initiation of each experiment. M-CSF-starved cells were harvested and re-suspended in complete medium containing 20 ng/ml M-CSF. Cells were seeded at 25,000 cells/well in 96-well plates and incubated for 1 hour at 37° C., 5% CO2. Cells were treated with 1 uM or 10 uM compound curves in triplicate and cell survival was measured 72 hours later by Cell Titer-Glo Luminescent Assay (Promega). Luminescence was read using a Tecan Infinite F200 microplate reader. EC50 values (50% survival in the presence of compound as compared to vehicle treated controls) were calculated from non-linear fit dose response compound curves using GraphPad Prism Software.

MV4-11 cells = assay: Human MV4-11 biphenotypic B myelomonocytic leukemia cell survival assay; format: cell-based; conditions: cell survival at 72h, Cell Titer-Glo
Description: Human MV4-11 Biphenotypic B Myelomonocytic Leukemia Cell Survival Assay
Biphenotypic B myelomonocytic leukemia MV4-11 cells (ATCC CRL-9591) were cultured in suspension at 37° C., 5% CO2 in complete medium (RPMI supplemented with 10% FBS, 1% penicillin/streptomycin). One day prior to treatment, cells per seeded in 96-well plates at 8000 cells/well in complete medium. The following day, triplicate wells were treated with compound curves of 100, 1000 or 10,000 nM starting concentration according to compound potency. Cell survival was measured 72h later by Cell Titer-Glo Luminescent Assay (Promega). Luminescence was read using a Tecan Infinite F200 microplate reader. EC50 values (50% survival in the presence of compound as compared to vehicle treated controls) were calculated from non-linear fit dose response compound curves using CambridgeSoft BioAssay software (Perkin Elmer).

Row | SMILES | IC50 [1] [nM] | EC50 [2] [nM] | EC50 (MV4-11 cells) [nM]
1 | Nc1ncnc2c3c(n(-c4ccc(NC(=O)NC5CCCCC5)cc4)c12)CCC3 [Compound 41] | 100 to 1000 | 100 to 1000 | < 100
2 | Nc1ncnc2c3c(n(-c4ccc(NC(=O)Nc5ccc(OC(F)F)cc5)cc4)c12)CCC3 [Compound 27] | < 100 | < 100 | < 100
3 | Nc1ccc(-n2c3c(c4ncnc(N)c42)CCC3)cc1 [Compound 2] |  |  | < 100
4 | Nc1ncnc2c3c(n(-c4ccc(NC(=O)Nc5cccc(C(F)(F)F)c5)c(F)c4)c12)CCC3 [Compound 63] | 100 to 1000 | < 100 | < 100
5 | Nc1ncnc2c3c(n(-c4ccc5c(c4)OCO5)c12)CCC3 [Compound 5] |  |  | > 1000
6 | COc1ccc(C(F)(F)F)cc1NC(=O)Nc1ccc(-n2c3c(c4ncnc(N)c42)CCC3)cc1 [Compound 58] | 100 to 1000 | 100 to 1000 | < 100
7 | COc1ccc(-n2c3c(c4ncnc(N)c42)CCC3)cc1 [Compound 7] |  |  | > 1000
8 | Nc1ncnc2c3c(n(CCc4ccccc4)c12)CCC3 [Compound 29] |  |  | > 1000
9 | Nc1ncnc2c3c(n(-c4ccc(NC(=O)OCc5ccccc5)cc4)c12)COC3 [Compound 31] |  |  | 100 to 1000
10 | COc1ccc(-n2c3c(c4ncnc(N)c42)CCC3)cc1OC [Compound 34] |  |  | > 1000
11 | Nc1ncnc2c3c(n(Cc4ccccc4)c12)CCC3 [Compound 15] |  |  | > 1000
12 | Nc1ncnc2c3c(n(-c4ccc(NC(=O)Nc5cc(C(F)(F)F)ccc5Cl)cc4)c12)CCC3 [Compound 69] | 100 to 1000 | 100 to 1000 | < 100
13 | Nc1ncnc2c3c(n(-c4ccc(NC(=O)Nc5cc(C(F)(F)F)ccc5F)c(F)c4)c12)CCC3 [Compound 62] | 100 to 1000 | 100 to 1000 | < 100
14 | CC(=O)Nc1ccc(-n2c3c(c4ncnc(N)c42)CCC3)cc1 [Compound 37] |  |  | > 1000
15 | CC(C)(C)c1cc(NC(=O)Nc2ccc(-n3c4c(c5ncnc(N)c53)CCC4)cc2)no1 [Compound 74] | < 100 | < 100 | 
16 | COc1cc(NC(=O)Nc2ccc(-n3c4c(c5ncnc(N)c53)CCC4)cc2)cc(C(F)(F)F)c1 [Compound 70] |  |  | < 100
17 | CS(=O)(=O)Nc1ccc(-n2c3c(c4ncnc(N)c42)CCC3)cc1 [Compound 6] |  |  | > 1000
18 | Nc1ccc(-n2c3c(c4ncnc(N)c42)CCCC3)cc1 [Compound 18] |  |  | 100 to 1000
19 | Nc1ncnc2c3c(n(-c4ccc(NC(=O)Nc5ccc(Cl)cc5)cc4)c12)CCC3 [Compound 22] |  | < 100 | 100 to 1000
20 | COc1ccc(NC(=O)Nc2ccc(-n3c4c(c5ncnc(N)c53)CCC4)cc2)cc1F [Compound 56] | < 100 | < 100 | < 100
21 | COc1ccc(NC(=O)Nc2ccc(-n3c4c(c5ncnc(N)c53)CCC4)cc2)cc1 [Compound 13] |  | < 100 | < 100
22 | C[C@H](NC(=O)Nc1ccc(-n2c3c(c4ncnc(N)c42)CCC3)cc1)c1ccccc1 [Compound 38] |  | 100 to 1000 | > 1000
23 | Nc1ncnc2c3c(n(-c4ccccc4)c12)CCC3 [Compound 49] |  |  | 100 to 1000
24 | Nc1ncnc2c3c(n(-c4ccc(NC(=O)Nc5ccc(F)cc5)cc4)c12)COC3 [Compound 33] | 100 to 1000 | 100 to 1000 | 100 to 1000
25 | Nc1ncnc2c3c(n(-c4ccc(O)cc4)c12)CCC3 [Compound 26] |  |  | > 1000
26 | Nc1ncnc2c3c(n(CCCc4ccccc4)c12)CCC3 [Compound 40] |  |  | 100 to 1000
27 | Nc1ncnc2c3c(n(-c4ccc(NC(=O)NCc5ccc(F)cc5)cc4)c12)CCC3 [Compound 52] |  | 100 to 1000 | < 100
28 | Nc1ncnc2c3c(n(-c4ccc(NC(=O)NCCc5ccc(F)cc5)cc4)c12)CCC3 [Compound 42] |  | 100 to 1000 | < 100
29 | Nc1ccc(-n2c3c(c4ncnc(N)c42)COC3)cc1 [Compound 32] |  |  | 100 to 1000
30 | Nc1ncnc2c3c(n(CCCCc4ccccc4)c12)CCC3 [Compound 51] |  |  | > 1000

Continued, in another order:

Row | IC50 [1] [nM] | SMILES | EC50 [2] [nM] | EC50 (MV4-11 cells) [nM]
31 | 100 to 1000 | CS(=O)(=O)c1ccc(NC(=O)Nc2ccc(-n3c4c(c5ncnc(N)c53)CCC4)cc2)cc1 [Compound 64] | > 1000 | 100 to 1000
32 | 100 to 1000 | COc1ccccc1NC(=O)Nc1ccc(-n2c3c(c4ncnc(N)c42)CCC3)cc1 [Compound 16] | < 100 | < 100
33 | 100 to 1000 | C[C@@H](NC(=O)Nc1ccc(-n2c3c(c4ncnc(N)c42)CCC3)cc1)c1ccccc1 [Compound 45] | 100 to 1000 | < 100
34 | 100 to 1000 | C[C@@H](NC(=O)Nc1ccc(-n2c3c(c4ncnc(N)c42)CCC3)cc1)c1ccc(F)cc1 [Compound 73] | 100 to 1000 | < 100
35 | 100 to 1000 | Nc1ncnc2c3c(n(-c4ccc(NC(=O)Nc5ccccc5Cl)cc4)c12)CCC3 [Compound 36] | 100 to 1000 | > 1000
36 | > 1000 | N#Cc1ccccc1NC(=O)Nc1ccc(-n2c3c(c4ncnc(N)c42)CCC3)cc1 [Compound 71] | > 1000 | 100 to 1000
37 | > 1000 | N#Cc1ccc(NC(=O)Nc2ccc(-n3c4c(c5ncnc(N)c53)CCC4)cc2)cc1 [Compound 65] | 100 to 1000 | < 100
38 | 100 to 1000 | Nc1ncnc2c3c(n(-c4ccc(NC(=O)NCc5ccccc5)cc4)c12)CCC3 [Compound 30] | 100 to 1000 | < 100
39 | > 1000 | Nc1ncnc2c3c(n(-c4ccc(NC(=O)c5ccccc5)cc4)c12)CCC3 [Compound 10] | > 1000 | > 1000
40 | 100 to 1000 | Nc1ncnc2c3c(n(-c4ccc(NC(=O)Nc5cccc(C(F)(F)F)c5)cc4)c12)CCC3 [Compound 17] | < 100 | < 100
41 | 100 to 1000 | N#Cc1cccc(NC(=O)Nc2ccc(-n3c4c(c5ncnc(N)c53)CCC4)cc2)c1 [Compound 66] | 100 to 1000 | < 100
42 | < 100 | Nc1ncnc2c3c(n(-c4ccc(NC(=O)Nc5cccc(F)c5)cc4)c12)CCC3 [Compound 19] | < 100 | 100 to 1000
43 | 100 to 1000 | Nc1ncnc2c3c(n(-c4ccc(NC(=O)Nc5ccccc5C(F)(F)F)cc4)c12)CCC3 [Compound 23] | 100 to 1000 | > 1000
44 | 100 to 1000 | CS(=O)(=O)c1cccc(NC(=O)Nc2ccc(-n3c4c(c5ncnc(N)c53)CCC4)cc2)c1 [Compound 72] | 100 to 1000 | < 100
45 | < 100 | COc1cc(NC(=O)Nc2ccc(-n3c4c(c5ncnc(N)c53)CCC4)cc2)ccc1F [Compound 35] | 100 to 1000 | < 100
46 | 100 to 1000 | Nc1ncnc2c3c(n(-c4ccc(NC(=O)Nc5ccc(C(F)(F)F)cc5)cc4)c12)CCC3 [Compound 21] | < 100 | 100 to 1000
47 | < 100 | COc1ccc(NC(=O)Nc2ccc(-n3c4c(c5ncnc(N)c53)CCC4)cc2)c(F)c1 [Compound 54] | < 100 | < 100
48 | 100 to 1000 | Nc1ncnc2c3c(n(-c4ccc(NC(=O)NCCc5ccccc5)cc4)c12)CCC3 [Compound 46] | 100 to 1000 | < 100
49 | > 1000 | Nc1ncnc2c3c(n(-c4ccc(NS(=O)(=O)c5ccccc5)cc4)c12)CCC3 [Compound 3] | > 1000 | > 1000
